Columns and labels:
[1] = Dermal toxicity of pesticidal formulations in male albino rabbits; settings: rabbit, in vivo, topical or ocular, 24 hours contact, observed 14 days
Excerpt: Five male albino rabbits weighing approximately 2.2 to 3.5 kilograms are selected for each dosage level. The hair is shaved from the entire trunk.
The following materials are used in dermal toxicity tests: • (a.) Saran tubing or "vinylite" film VU 1900, 30.5 cm (12") wide, 0.04 millimeter in thickness, and long enough to fit around the rabbit; (b.) Felt cloth bandages measuring approximately 22.9 x 45.7 cm (9" x 18"); (c.) pieces of 3.8 cm (1.5") adhesive tape approximately 35.6 cm (14") long.
Granular material to be evaluated is placed in the center of the plastic film and is moistened with water. The rabbits' underside is then moistened with water, and the animals are placed, belly down, on. the material. The plastic is then brought up and around the animal and secured at each end with strips of adhesive tape. The felt cloth is then placed under the belly and brought up and around the animal and secured to the body with the remaining two strips of adhesive tape. The "cuff" is removed from the test animals 24 hours after dosing, and any remaining material is brushed away. If the test material cannot be removed, the animal is fitted with a fiber collar which prevents the animal from licking the treatment area. […]
The dermal LD50 values (mg/kg/ body weight) are. calculated for experimental data for the compositions evaluated. […]

[2] = Dermal toxicity of pesticidal formulations in male rats; settings: rat, in vivo, topical or ocular, male Wistar rats, 24 hours contact, observed 14 days
Procedure: Five male Wistar rats weighing approximately 209 to 277 g are selected for each dosage level. The hair is shaved from the ventral surface of the abdomen.
Granular material for evaluation is mixed with an equal weight of water on an aluminum foil backed with a plastic adhesive strapping. This preparation is then applied to the shaven ventral surface of the animal and fastened in place with adhesive strapping. After a contact time of 24 hours, the strapping is removed and the skin is washed with soap and water. The animals are then observed for 14 days for skin irritation or mortality. After this observation period, the animals are sacrificed and weighed.
Dermal LD50 values (mg/kg body weight) are calculated from experimental data for the compositions evaluated. The LD50 values obtained are averaged. […] Compositions A and B of Table III are as defined in Table I.

Structure (SMILES): CCOP(=S)(OCC)SCSC(C)(C)C [O,O-diethyl S-{[(1,1-dimethylethyl)-thio]methyl}phosphorodithioate]
- LD50 at 336 h [1]: 1 to 2 mg/kg
- LD50 at 336 h [2]: 1 to 2 mg/kg

From patent EP0111112A1, “Granular pesticidal compositions coated with hydrophobic solids with attendant reduced dermal toxicity” (priority 1982, dated 1984)
